From US7759337B2, “Phthalazine compounds and methods of use” (Amgen Inc., priority 2005, dated 2010)

System: production of TNF by monocytes activated with bacterial lipopolysaccharide (LPS)
Experiment: Lipopolysaccharide-activated monocyte TNF production assay
Format: cell-based
Settings: Homo sapiens; whole blood monocyte assay (LPS induced TNF release)
Procedure, shortened: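 Adherent human PBMC-derived monocytes preincubated 60 min with nine two-fold compound dilutions, then stimulated with E. coli K532 LPS (30 ng/mL in the added medium) for 4 h at 37 °C. Supernatant TNF measured by sandwich ELISA; IC50 is the compound concentration halving TNF production, from second-order polynomial fits.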

| SMILES | IC50 |
| --- | --- |
| Cc1ccc(C(=O)NC2CC2)cc1-c1ccc2c(N3CCNC(=O)[C@@H]3C)nncc2c1 [Example 271, N-cyclopropyl-4-methyl-3-{1-[(2S)-2-methyl-3-oxopiperazin-1-yl]phthalazin-6-yl}benzamide] | ≤ 5 µM |
| Cc1ccc(C(=O)NC2CC2)cc1-c1ccc2c(N3CCC[C@H]3C(F)(F)F)nncc2c1 [Example 273, N-cyclopropyl-4-methyl-3-{1-[(2S)-2-(trifluoromethyl)pyrrolidin-1-yl]phthalazin-6-yl}benzamide] | ≤ 5 µM |
| Cc1ccc(C(=O)NC2CC2)cc1-c1ccc2c(N3CCN4CCC[C@H]4C3)nncc2c1 [Example 274, 3-{1-[(8aS)-hexahydropyrrolo[1,2-a]pyrazin-2(1H)-yl]phthalazin-6-yl}-N-cyclopropyl-4-methylbenzamide] | ≤ 5 µM |
| Cc1ccc(C(=O)NC2CC2)cc1-c1ccc2c(N3CCNC(=O)CC3)nncc2c1 [Example 275, N-cyclopropyl-4-methyl-3-[1-(5-oxo-1,4-diazepan-1-yl)phthalazin-6-yl]benzamide] | ≤ 5 µM |
| Cc1ccc(C(=O)NC2CC2)cc1-c1cnc2c(N3CCOCC3)nncc2c1 [Example 276, N-cyclopropyl-4-methyl-3-(8-morpholin-4-ylpyrido[2,3-d]pyridazin-3-yl)benzamide] | ≤ 5 µM |
| Cc1ccc(C(N)=O)cc1-c1ccc2c(N3CCNC(=O)CC3)nncc2c1 [Example 277, 4-methyl-3-[1-(5-oxo-1,4-diazepan-1-yl)phthalazin-6-yl]benzamide] | ≤ 5 µM |
| CONC(=O)c1ccc(C)c(-c2ccc3c(N4CCOCC4)nncc3c2)c1 [Example 278, N-methoxy-4-methyl-3-(1-morpholin-4-ylphthalazin-6-yl)benzamide] | ≤ 5 µM |
| CONC(=O)c1ccc(C)c(-c2ccc3c(NC(C)C)nncc3c2)c1 [Example 279, 3-[1-(isopropylamino)phthalazin-6-yl]-N-methoxy-4-methylbenzamide] | ≤ 5 µM |
| Cc1ccc(C(N)=O)cc1-c1ccc2c(N3CCN4C(=O)OC[C@@H]4C3)nncc2c1 [Example 280, 3-{1-[(8aS)-3-oxotetrahydro[1,3]oxazolo[3,4-a]pyrazin-7(1H)-yl]phthalazin-6-yl}-4-methylbenzamide] | ≤ 5 µM |
| Cc1ccc(C(N)=O)cc1-c1ccc2c(N(C)C)nncc2c1 [Example 281, 3-[1-(dimethylamino)phthalazin-6-yl]-4-methylbenzamide] | ≤ 5 µM |
| Cc1ccc(C(N)=O)cc1-c1ccc2c(N3CCN4CCC[C@H]4C3)nncc2c1 [Example 282, 3-{1-[(8aS)-hexahydropyrrolo[1,2-a]pyrazin-2(1H)-yl]phthalazin-6-yl}-4-methylbenzamide] | ≤ 5 µM |
| Cc1ccc(C(=O)NC2CCC2)cc1-c1ccc2c(N(C)C)nncc2c1 [Example 283, N-cyclobutyl-3-[1-(dimethylamino)phthalazin-6-yl]-4-methylbenzamide] | ≤ 5 µM |
| Cc1ccc(C(N)=O)cc1-c1ccc2c(N3CCN4C(=O)OC[C@H]4C3)nncc2c1 [Example 284, 3-{1-[(8aR)-3-oxotetrahydro[1,3]oxazolo[3,4-a]pyrazin-7(1H)-yl]phthalazin-6-yl}-4-methylbenzamide] | ≤ 5 µM |
| Cc1ccc(C(N)=O)cc1-c1ccc2c(N3CCN4C(=O)CC[C@H]4C3)nncc2c1 [Example 285, 3-{1-[(8aS)-6-oxohexahydropyrrolo[1,2-a]pyrazin-2(1H)-yl]phthalazin-6-yl}-4-methylbenzamide] | ≤ 5 µM |
| Cc1ccc(C(=O)NC2CC2)cc1-c1ccc2c(-c3ccc(F)cc3C)nncc2c1 [Example 286, N-cyclopropyl-3-[1-(4-fluoro-2-methylphenyl)phthalazin-6-yl]-4-methylbenzamide] | ≤ 5 µM |
| Cc1ccc(C(=O)NC2CC2)cc1-c1ccc2c(-c3c[nH]c(=O)cc3C)nncc2c1 [Example 287, N-cyclopropyl-4-methyl-3-[1-(4-methyl-6-oxo-1,6-dihydropyridin-3-yl)phthalazin-6-yl]benzamide] | ≤ 5 µM |
| Cc1ccc(C(=O)NC2CC2)cc1-c1ccc2c(O)nncc2c1 [Example 288, N-cyclopropyl-3-(1-hydroxyphthalazin-6-yl)-4-methylbenzamide] | ≤ 5 µM |
| Cc1ccc(C(=O)NC2CC2)cc1-c1ccc2c(N(C)C3CCCCC3)nncc2c1 [Example 289, 3-{1-[cyclohexyl(methyl)amino]phthalazin-6-yl}-N-cyclopropyl-4-methylbenzamide] | ≤ 5 µM |
| Cc1ccc(C(=O)NC2CC2)cc1-c1ccc2c(N(C)C(C)C)nncc2c1 [Example 290, N-cyclopropyl-3-{1-[isopropyl(methyl)amino]phthalazin-6-yl}-4-methylbenzamide] | ≤ 5 µM |
| Cc1ccc(C(N)=O)cc1-c1ccc2c(N(C)C3CCCCC3)nncc2c1 [Example 291, 3-{1-[cyclohexyl(methyl)amino]phthalazin-6-yl}-4-methylbenzamide] | ≤ 5 µM |
| Cc1ccc(C(N)=O)cc1-c1ccc2c(N(C)C(C)C)nncc2c1 [Example 292, 3-{1-[isopropyl(methyl)amino]phthalazin-6-yl}-4-methylbenzamide] | ≤ 5 µM |

| SMILES | IC50 |
| --- | --- |
| Cc1ccc(C(=O)NC2CC2)cc1-c1ccc2c(N3CCC[C@H]3C(C)C)nncc2c1 [Example 293, N-cyclopropyl-3-{1-[(2S)-2-isopropylpyrrolidin-1-yl]phthalazin-6-yl}-4-methylbenzamide] | ≤ 5 µM |
| Cc1ccc(C(N)=O)cc1-c1ccc2c(N3CCn4c(nnc4C(F)(F)F)C3)nncc2c1 [Example 294, 4-methyl-3-{1-[3-(trifluoromethyl)-5,6-dihydro[1,2,4]triazolo[4,3-a]pyrazin-7(8H)-yl]phthalazin-6-yl}benzamide] | ≤ 5 µM |
| Cc1ccc(C(=O)NC2CC2)cc1-c1ccc2c(N3CCC[C@@H]3C)nncc2c1 [Example 295, N-cyclopropyl-4-methyl-3-{1-[(2S)-2-methylpyrrolidin-1-yl]phthalazin-6-yl}benzamide] | ≤ 5 µM |
| Cc1ccc(C(=O)NC2CC2)cc1-c1ccc2c(N3CCC[C@H]3C)nncc2c1 [Example 296, N-cyclopropyl-4-methyl-3-{1-[(2R)-2-methylpyrrolidin-1-yl]phthalazin-6-yl}benzamide] | ≤ 5 µM |
| Cc1ccc(C(=O)NC2CC2)cc1-c1ccc2c(NC[C@H]3CCCO3)nncc2c1 [Example 297, N-cyclopropyl-4-methyl-3-(1-{[(2R)-tetrahydrofuran-2-ylmethyl]amino}phthalazin-6-yl)benzamide] | ≤ 5 µM |
| CC[C@H](C)Nc1nncc2cc(-c3cc(C(=O)NC4CC4)ccc3C)ccc12 [Example 298, N-cyclopropyl-4-methyl-3-(1-{[(1S)-1-methylpropyl]amino}phthalazin-6-yl)benzamide] | ≤ 5 µM |
| Cc1ccccc1Oc1nncc2cc(-c3cc(C(N)=O)ccc3C)ccc12 [Example 299, 4-methyl-3-[1-(2-methylphenoxy)phthalazin-6-yl]benzamide] | ≤ 5 µM |
| Cc1ccc(C(N)=O)cc1-c1ccc2c(Oc3cccnc3C)nncc2c1 [Example 300, 4-methyl-3-{1-[(2-methylpyridin-3-yl)oxy]phthalazin-6-yl}benzamide] | ≤ 5 µM |
| Cc1ccc(C(N)=O)cc1-c1ccc2c(Oc3ccc(F)cc3)nncc2c1 [Example 301, 3-[1-(4-fluorophenoxy)phthalazin-6-yl]-4-methylbenzamide] | ≤ 5 µM |
| CC[C@H](C)Oc1nncc2cc(-c3cc(C(=O)NC4CC4)ccc3C)ccc12 [Example 302, N-cyclopropyl-4-methyl-3-(1-{[(1S)-1-methylpropyl]oxy}phthalazin-6-yl)benzamide] | ≤ 5 µM |
| CC[C@H](C)Nc1nncc2cc(-c3cc(C(N)=O)ccc3C)ccc12 [Example 303, 4-methyl-3-(1-{[(1S)-1-methylpropyl]amino}phthalazin-6-yl)benzamide] | ≤ 5 µM |
| Cc1ccc(C(N)=O)cc1-c1ccc2c(Oc3ccc(F)cc3F)nncc2c1 [Example 304, 3-[1-(2,4-difluorophenoxy)phthalazin-6-yl]-4-methylbenzamide] | ≤ 5 µM |
| Cc1cc(F)ccc1Oc1nncc2cc(-c3cc(C(=O)NC4CC4)ccc3C)ccc12 [Example 305, N-cyclopropyl-3-[1-(4-fluoro-2-methylphenoxy)phthalazin-6-yl]-4-methylbenzamide] | ≤ 5 µM |
| COc1ccccc1Oc1nncc2cc(-c3cc(C(N)=O)ccc3C)ccc12 [Example 306, 3-[1-(2-methoxyphenoxy)phthalazin-6-yl]-4-methylbenzamide] | ≤ 5 µM |
| Cc1ccc(C(N)=O)cc1-c1ccc2c(Oc3cccc(Cl)c3)nncc2c1 [Example 307, 3-[1-(3-chlorophenoxy)phthalazin-6-yl]-4-methylbenzamide] | ≤ 5 µM |
| Cc1ccc(C(=O)NC2CC2)cc1-c1ccc2c(Oc3cccnc3C)nncc2c1 [Example 308, N-cyclopropyl-4-methyl-3-{1-[(2-methylpyridin-3-yl)oxy]phthalazin-6-yl}benzamide] | ≤ 5 µM |
| Cc1ccc(C(=O)NC2CC2)cc1-c1ccc2c(NC[C@@H]3CCCO3)nncc2c1 [Example 309, N-cyclopropyl-4-methyl-3-(1-{[(2S)-tetrahydrofuran-2-ylmethyl]amino}phthalazin-6-yl)benzamide] | ≤ 5 µM |
| Cc1ccc(C(=O)NC2CC2)cc1-c1ccc2c(NCCCN3CCCC3=O)nncc2c1 [Example 310, N-cyclopropyl-4-methyl-3-(1-{[3-(2-oxopyrrolidin-1-yl)propyl]amino}phthalazin-6-yl)benzamide] | ≤ 5 µM |
| Cc1ccc(C(N)=O)cc1-c1ccc2c(OC3CCCCC3)nncc2c1 [Example 311, 3-[1-(cyclohexyloxy)phthalazin-6-yl]-4-methylbenzamide] | ≤ 5 µM |
| Cc1ccc(C(=O)NC2CC2)cc1-c1ccc2c(NC3CCC(O)CC3)nncc2c1 (stereo not drawn) [Example 312, N-cyclopropyl-3-{1-[(4-hydroxycyclohexyl)amino]phthalazin-6-yl}-4-methylbenzamide] | ≤ 5 µM |
| CC[C@@H](C)Nc1nncc2cc(-c3cc(C(=O)NC4CC4)ccc3C)ccc12 [Example 314, N-cyclopropyl-4-methyl-3-(1-{[(1R)-1-methylpropyl]amino}phthalazin-6-yl)benzamide] | ≤ 5 µM |
